In patent publication US9403845B2, “Pesticidally active pyridyl- and pyrimidyl- substituted pyrazole derivatives” (Syngenta Participations AG, priority 2012, dated 2016) one finds mortality and melting point data, which are given here for eleven compounds.

The subject of data set [1] is Myzus persicae (Green Peach Aphid). The experiment in a line: Activity against Myzus persicae (green peach aphid), mixed population, feeding/residual contact activity, preventive. Particulars: foliar, 144 h, sprayed sunflower leaf discs, aphid population of mixed ages, 6 days incubation. The class given is in vivo. The text has this:
Activity Against Myzus persicae (Green Peach Aphid)
(Mixed Population, Feeding/Residual Contact Activity, Preventive)

Data set [2] has as its system Bemisia tabaci (Cotton White Fly). The experiment in a line: Activity against Bemisia tabaci (cotton white fly), feeding/residual contact activity, preventive. The class given is in vivo. Particulars: foliar, 144 h, sprayed cotton leaf discs, 12 to 18 adults, 6 days after infestation, read-out: activity (mortality and special effects). As for the experimental part: Activity Against Bemisia tabaci (Cotton White Fly)
(Feeding/Residual Contact Activity, Preventive)
Cotton leaf discs were placed on agar in a 24-well microtiter plate and sprayed with test solutions. After drying, the leaf discs were infested with 12 to 18 adults. After an incubation period of 6 days after infestation, samples were checked for mortality and special effects (e.g. phytotoxicity).

As usually defined, the mortality is the percentage killed. `CC(=O)N/N=C1\CCCc2ccc(-c3cnn(-c4cccnc4)c3)nc21` [Compound 6.007, acetic acid [2-(1-pyridin-3-yl-1H-pyrazol-4-yl)-6,7-dihydro-5H-quinolin-ylidene]-hydrazide] registered a mortality at 200 ppm in data set [1] above 80%. On to `O=C1CCOc2ccc(-c3cnn(-c4cccnc4)c3)nc21` [Compound 7.004, 6-[1-(3-pyridyl)pyrazol-4-yl]-2,3-dihydropyrano[3,2-b]pyridin-4-one], for which the mortality at 200 ppm in data set [2] and in data set [1] was above 80% throughout. `CC1CCc2ccc(-c3cnn(-c4cccnc4)c3)nc2C1=O` (stereo not shown) [Compound 9.003]: the mortality at 200 ppm in data set [2] and in data set [1] was above 80% in each case. As a reminder, the melting point is the temperature, or range, at which the solid turns liquid. With `CC(C)O/N=C1\CCCc2ccc(-c3cnn(-c4cccnc4)c3)nc21` (single isomer, unassigned) [Compound 1.005, 2-(1-pyridin-3-yl-1H-pyrazol-4-yl)-6,7-dihydro-5H-quinolin-8-one O-isopropyl-oxime], the melting point was in the range of 128 to 130 °C. For the compound `CO/N=C1\CCOc2ccc(-c3cnn(-c4cccnc4)c3)nc21` [Compound 1.008, N-methoxy-6-[1-(3-pyridyl)pyrazol-4-yl]-2,3-dihydropyrano[3,2-b]pyridin-4-imine], the mortality at 200 ppm in data set [2] and in data set [1] was above 80% in each case.

For `CON=C1c2nc(-c3cnn(-c4cccnc4)c3)ccc2N(C)S(=O)(=O)C1(C)C` (single isomer, unassigned) [Compound 8.004, N-methoxy-1,3,3-trimethyl-2,2-dioxo-6-[1-(3-pyridyl)pyrazol-4-yl]pyrido[3,2-c]thiazin-4-imine], the mortality at 200 ppm in data set [2] and in data set [1] was above 80% in each case. `Cn1c(=O)c2c(nc(-c3cnn(-c4cccnc4)c3)n2C)n(C)c1=O` [Compound 9.002]: the melting point was above 300 °C. As to `CN1Cc2ccc(-c3cnn(-c4cccnc4)c3)nc2C1=O` [Compound 9.001], the mortality at 200 ppm in data set [1] is above 80%. For `CO/N=C1\CCCc2sc(-c3cnn(-c4cccnc4)c3)nc21` [Compound 3.002, N-methoxy-2-[1-(3-pyridyl)pyrazol-4-yl]-6,7-dihydro-5H-1,3-benzothiazol-4-imine], the mortality at 200 ppm in data set [1] is above 80%. `CCO/N=C1\CS(=O)(=O)N(C)c2ccc(-c3cnn(-c4cccnc4)c3)nc21` [Compound 8.003, N-ethoxy-2-hydroxy-1-methyl-2-oxo-6-[1-(3-pyridyl)pyrazol-4-yl]pyrido[3,2-c]thiazin-4-imine]: the mortality at 200 ppm in data set [2] and in data set [1] was above 80% each time. `O=C1CCCc2ccc(-c3cnn(-c4cccnc4)c3)nc21` [Compound 7.002, 2-(1-pyridin-3-yl-1H-pyrazol-4-yl)-6,7-dihydro-5H-quinolin-8-one]: in data set [2], the mortality at 200 ppm is above 80%.
